Publication PMC6273065, “Synthesis, Molecular Modelling and Biological Evaluation of Novel Heterodimeric, Multiple Ligands Targeting Cholinesterases and Amyloid Beta” (Molecules, 2016)
Read-outs that look alike come from different tables or passages of the source. Marks after values point to notes of the source that are not given here.

Key:
EeAChE [1] = target: T1, EeAChE (Electrophorus electricus, UniProt O42275); test: biochemical; type: biochemical
T1 construct: purchased Sigma–Aldrich
Description: (§1) Ellman’s method was used to determine the activity of the synthesized compounds against AChE from electric eel (Electrophorus electricus, EeAChE) and BuChE from equine serum (EqBuChE).
(§2) All assays were performed in 0.1 M phosphate buffer pH 8.0. The tested compounds or water in a blank sample (25 µL) were incubated with the enzyme (20 µL) for 5 min at 25 °C in buffer (765 µL) prior to starting the reaction. Then, DTNB (20 µL) and ATC (20 µL) were added. […] Each condition was measured in triplicate. The percentages of enzyme inhibition were calculated from the equation 100%—Ai/A0 × 100%, where Ai is the absorbance of a sample with an inhibitor and A0 is the absorbance of a blank sample (100% activity of the enzyme). The IC50 values were calculated using GraphPad Prism 5. Data is expressed as mean ± SEM.

EeAChE [2] = target: T1, EeAChE; test: Kinetic characterization of EeAChE inhibition (Lineweaver–Burk, Cornish–Bowden plots); type: biochemical; settings: Lineweaver–Burk and Cornish–Bowden plots, ATC 0.067–0.5 mM
Description: Both types of inhibition were further confirmed by Cornish–Bowden plots (S/V vs. [I]) (A. in Supplementary Materials).
To estimate the type of inhibition of EeAChE, the same experimental protocol as reported above (4.3.1) was performed. Different concentrations of the substrate ATC (0.067–0.5 mM) were used to create Lineweaver-Burk plots by plotting the inverse initial velocity (1/V) as a function of the inverse of the substrate concentration (1/[S]). The stock solution of ATC (0.5 mM in a well) was prepared in water and diluted before use to obtained 0.4, 0.3, 0.2, 0.1and 0.067 mM concentrations of substrate. The double reciprocal plots were assessed by a weighted least square analysis that assumed the variance of V to be a constant percentage of V for the entire data set. Each experiment was performed in triplicate. Then, to confirm the mode of inhibition, Cornish-Bowden plots were obtained by plotting S/V (substrate concentration/velocity ratio) versus the inhibitor concentration [I]. Data analysis was performed with GraphPad Prism 5.

[3] = PAMPA-BBB; for Log Pe: 2 h at 37 °C, means of two replicates; for Prediction of BBB penetration: class from log Pe
Description: For anti-Alzheimer drug candidates, the ability to cross the blood–brain barrier and to enter the central nervous system (CNS) is crucial to achieve their pharmacological target and activity.
The BBB-PAMPA Explorer Test System was purchased from pION Inc. The in vitro permeability through BBB-1 lipid membrane was determined for 7 commercial drugs and the tested compounds. The compounds were dissolved in DMSO (10 mM stock solution) and diluted with Prisma HT buffer (5 µL/1 mL). Then, the […] 96-well microplate was filled with solution of the tested compounds in buffer (200 µL/well). The filter membrane in acceptor 96-well microplate was impregnated with BBB-1 lipid solution (5 µL/well) and the acceptor plate was filled with Brain Sink Buffer (200 µL/well). The acceptor plate was carefully placed on the donor plate to form a sandwich that was left undisturbed for 2 h at 37 °C. After incubation, the donor plate was carefully removed. The concentration of compounds in the acceptor, the donor, and the reference wells were measured using EnSpire Multimode Microplate Reader (PerkinElmer).

EqBuChE [4] = target: T2, EqBuChE (Equus caballus, UniProt P81908); test: biochemical
T2 construct: BuChE from equine serum (EqBuChE, Sigma–Aldrich); purchased Sigma–Aldrich; host or cells: equine serum
T2 sequence (P81908 whole entry): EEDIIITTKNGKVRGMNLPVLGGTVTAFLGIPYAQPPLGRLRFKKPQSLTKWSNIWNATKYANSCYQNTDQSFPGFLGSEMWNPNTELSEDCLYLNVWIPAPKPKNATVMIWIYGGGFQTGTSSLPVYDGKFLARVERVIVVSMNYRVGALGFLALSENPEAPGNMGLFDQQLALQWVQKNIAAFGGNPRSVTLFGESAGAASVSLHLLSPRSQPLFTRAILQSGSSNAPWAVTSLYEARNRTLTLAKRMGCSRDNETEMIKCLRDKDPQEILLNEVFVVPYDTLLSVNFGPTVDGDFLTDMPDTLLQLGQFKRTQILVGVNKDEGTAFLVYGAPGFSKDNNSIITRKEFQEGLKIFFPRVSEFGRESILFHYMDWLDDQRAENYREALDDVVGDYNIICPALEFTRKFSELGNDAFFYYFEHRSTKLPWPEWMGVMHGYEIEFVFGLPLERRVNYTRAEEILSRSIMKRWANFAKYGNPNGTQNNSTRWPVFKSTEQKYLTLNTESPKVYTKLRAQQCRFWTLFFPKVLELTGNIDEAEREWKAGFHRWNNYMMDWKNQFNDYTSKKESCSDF
Description: as §1, §2

Aβ1–42 [5] = target: T3, Aβ1–42 (Homo sapiens, UniProt P05067); test: Thioflavin-T fluorometric assay of self-induced Aβ1–42 aggregation; type: biochemical; settings: 10 µM compound, 1.5 µM Aβ1–42; mean ± SD; <10 = defined as not active; read-out: Aβ1–42 Aggreg. % of inhibition
T3 construct: Recombinant human HFIP-pretreated Aβ1–42 peptide; purchased Merck Millipore Lot number 2387442
T3 sequence (P05067 672-713): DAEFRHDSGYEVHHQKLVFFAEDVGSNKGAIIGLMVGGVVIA
Source text: Mechanisms of Aβ aggregation remain unclear. Besides the self-induced assembly of Aβ, several other factors affect its aggregation, including metal ions, AChE [45], and oxidative stress. Therefore, we evaluated our compounds using the most versatile and commonly used Aβ1–42 aggregation Thioflavin T assay. Seven structurally diverse compounds were selected (one from each subseries) to test their ability to inhibit self-induced Aβ1–42 aggregation.
Thioflavin-T (ThT) fluorometric assay was performed to investigate the effect of the test compounds on the self-aggregation of Aβ1–42. […] Each sample was prepared in quadruplicate, and the DMSO was always at 3%. To quantify amyloid fibril formation, the ThT fluorescence was measured through the bottom of the plate every 180 s at an excitation wavelength of 440 nm and emission wavelength of 490 nm, with the medium continuously shaking between measurements using a 96-well microplate reader (Synergy™ H4, BioTek Instruments, Inc., Winooski, VT, USA). […] The fluorescence intensities at the plateau in the absence and presence of the test compounds were averaged, and the average fluorescence of the corresponding wells at t = 0 h was subtracted.

EqBuChE [6] = target: T2, EqBuChE; settings: % inhibition at 50 μM lower than 50%; cited from earlier work
EeAChE [7] = target: T1, EeAChE; settings: cited from earlier work
Aβ1–42 [8] = target: T3, Aβ1–42; design: method as in PMID 26032855; settings: 10 µM compound, self-induced; mean ± SD; cited from earlier work
Aβ12–23 = settings: 50 µM compound, self-induced Aβ12–23 aggregation; mean ± SD; cited from earlier work

T1 sequence (O42275 24-633): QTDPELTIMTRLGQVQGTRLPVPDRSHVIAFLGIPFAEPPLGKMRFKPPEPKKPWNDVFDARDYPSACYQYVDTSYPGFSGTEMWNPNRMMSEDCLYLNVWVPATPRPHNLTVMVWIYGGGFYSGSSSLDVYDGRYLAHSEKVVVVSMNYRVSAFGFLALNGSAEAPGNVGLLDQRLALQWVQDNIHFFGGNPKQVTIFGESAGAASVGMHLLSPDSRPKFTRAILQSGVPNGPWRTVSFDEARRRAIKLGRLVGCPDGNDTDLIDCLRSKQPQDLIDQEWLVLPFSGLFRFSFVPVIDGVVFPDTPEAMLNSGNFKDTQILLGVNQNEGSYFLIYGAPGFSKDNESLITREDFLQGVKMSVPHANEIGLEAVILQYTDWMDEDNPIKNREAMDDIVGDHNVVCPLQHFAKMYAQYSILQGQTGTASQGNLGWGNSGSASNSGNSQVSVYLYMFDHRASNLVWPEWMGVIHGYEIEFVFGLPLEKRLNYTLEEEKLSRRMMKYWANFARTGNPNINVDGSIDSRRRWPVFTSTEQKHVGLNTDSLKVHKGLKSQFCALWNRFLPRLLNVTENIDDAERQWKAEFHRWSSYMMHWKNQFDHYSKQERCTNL

| SMILES | IC50 (EeAChE [1]) | type of EeAChE inhibition (EeAChE [2]) | Log Pe [3] | Prediction of BBB penetration [3] | IC50 (EqBuChE [4]) | inhibition at 10 µM (Aβ1–42 [5]) | IC50 (EqBuChE [6]) | IC50 (EeAChE [7]) | Aβ1–42 Aggreg. % of inhibition (Aβ1–42 [8]) | Aβ12–23 aggregation % of inhibition (Aβ12–23) |
| --- | --- | --- | --- | --- | --- | --- | --- | --- | --- | --- |
| O=C1c2ccccc2S(=O)(=O)N1CCCCCNCc1cccc(Cl)c1 [Compound 42, 2-(5-(3-chlorobenzylamino)pentyl)benzo[d]isothiazol-3(2H)-one 1,1-dioxide] | 70 ± 1 nM | linear non-competitive type of inhibition | –4.3 | CNS+ (CNS+, log Pe > −4.5, high permeability (i.e., can enter the CNS)) | > 50000 nM | 16.5 ± 3.01% |  |  |  |  |
| O=C1c2ccccc2C(=O)N1CCCCCCN1CCc2ccccc2C1 [Compound 11, 2-(6-(3,4-dihydroisoquinolin-2(1H)-yl)hexyl)isoindoline-1,3-dione] | 387 ± 3 nM | mixed type of enzyme inhibition |  |  | 5120 ± 90 nM |  |  |  |  |  |
| O=C1c2ccccc2C(=O)N1CCCCCCCCN1CCCC1 [Compound 4, 2-(8-(Pyrrolidin-1-yl)octyl)isoindoline-1,3-dione] | 282 ± 11 nM | mixed type of enzyme inhibition | –4.0 | CNS+ (CNS+, log Pe > −4.5, high permeability (i.e., can enter the CNS)) | 3240 ± 141 nM | 15.2 ± 3.06% |  |  |  |  |
| O=C1c2ccccc2S(=O)(=O)N1CCCCCNCc1ccccc1 [Compd. II] |  |  |  |  |  |  | > 50000 nM | 36 ± 1 nM | 22.19 ± 16.6% |  |
| O=C1c2ccccc2C(=O)N1CCCCCCCN1CCCC1 [Compound 3, 2-(7-(Pyrrolidin-1-yl)heptyl)isoindoline-1,3-dione] | 276 ± 3 nM | mixed type of enzyme inhibition |  |  | > 50000 nM |  |  |  |  |  |
| CCN(CC)CCCCCCCCN1C(=O)c2ccccc2C1=O [Compd. I] |  |  |  |  |  |  |  |  |  | 30.10 ± 5.78 ^f % |
